From patent publication US20090247495A1, “CU[…] AND USES THEREOF” (priority 2007, published 2009)

Tests used:
HL60 and U937 cells = test: Cytoskeletal staining (F-actin, confocal); format: cell-based, human; details: two days
Protocol: HL60 and U937 cells were incubated with cucurbitacin B for two days at 37° C. Then the cells were centrifuged and fixed in 4% paraformaldehyde, permeabilized with 0.1% Triton X-100 in PBS, and incubated with FITC-conjugated anti-β-tubulin antibody, followed by rhodamine-phalloidin to detect filamentous F-actin. Confocal images were collected on a Leica microscope. […] Untreated HL 60 and U937 cells were depicted in FIGS. 15A and 15C, and cultured HL 60 and U937 cells were depicted in FIGS. 15B and 15D. • 6.2.8 Cucurbitacin B and Cucurbitacin D Inhibited Stat3 Activation and Stimulated Erk and Hsp27 Activation in HepG2, HT29 and MCF-7 Cells

[1] = system: HepG2-resistant (HepG2-R); test: Hollow fiber assay, HepG2-resistant; format: in vivo, nude mice; details: up to 14 days
Protocol: The hollow fiber assay (HFA) was developed by the NCI as a high-throughput, preliminary in vivo screening assay for the evaluation of anti-cancer agents. Human liver cancer cell lines HepG2 and HepG2-resistant (HepG2-R) were in vitro cultured inside hollow fibers for a short term (48 hours), followed by in vivo implantation at s.c. sites of the nude mice. Mice were treated with negative control (0.5% CMC), positive control (10 mg/kg 5-Fluorouracil) and cucurbitacin B (0.2 mg/kg) for up to 14 days. Then the fibers were excised and analyzed for cell viability by MTT assay. The efficacies of cucurbitacin B against HepG2 and HepG2-R were expressed as the percentage of the results obtained in the negative control group.

Stat3 = test: Western blot of Stat3 activation in HepG2, HT29 and MCF-7 cells; format: cell-based, human
Jak, Stat3 and c-raf = test: Western blot of phosphorylated Jak, Stat3 and c-raf in Panc-1 cells; format: cell-based, human; details: IC50 dosage (0.8 uM)
Protocol: The drug treatment was terminated and the cells were rinsed twice with phosphate-buffered saline and lysed at 4° C. in a lysis buffer containing 50 mM Tris-HCl, pH7.5, 100 mM NaCl, 5 mM EDTA, 40 mM NaP2O7, 1% Triton X-100, 1 mM dithiothreitol, 200 μM Na3VO4, 100 uM phenylmethysufonyl fluoride, 2 μg/ml leupeptin, 4 μg/ml aprotinin and 0.7 μg/ml pepstatin. The insoluble protein lysate were removed by centrifugation for 10 minutes at 12,000 rpm. Fifty micrograms of protein lysate was resolved using 10% SDS-polyacryamide gel electrophoresis (PAGE) and then subjected to western blot anaylsis. Western blots were performed with antibodies specific for phosphor- and Jak, Stat3 and c-raf proteins. […] The protein bands were then visualized with the Enhanced Chemiluminescence Plus (ECL Plus) detection system (Amersham).
The proteins activation was detected by western blot.
Cell lysate (50 μg) of each sample was separated in 10% SDS-PAGE followed by immuno-blotting with anti-jak1 anti-jak2, anti-jak3, anti-Stat3 and c-raf antibodies to detect the phosphorylated form of jak1, jak2, jak3, Stat3 and c-raf.

[2] = system: human MDA-MB-231 breast cancer cells; test: Orthotopic human breast cancer model in nude mice; format: in vivo
Protocol: One million human MDA-MB-231 breast cancer cells/Matrigel (vol 1:1) were inoculated isotopically into the breasts of nude mice. The mice received intraperitoneal injections of 1 mg/ml of cucurbitacin B 3 times a week starting on the day after inoculation of the cells. The longitudinal and the transverse diameter, and the height were measured once a week. The volume was calculated by multiplying these elements, and the relative tumor size was determined by dividing the product by the initial volume. After 6 weeks, the mice were sacrificed to weigh the dissected tumors. At that moment, blood was taken for analysis, where organs and tumors were inspected, dissected, fixed and stained with hematoxylin-eosin and/or Ki-67. Data were expressed as mean±SD. Statistical analysis was performed by student's t test.
Six weeks after i.p. treatment with either vehicle or cucurbitacin B 1 mg/kg three times a week, mice were euthanized and tumors were observed and weighed. Results represented the mean and SD of 9 treated and 9 control tumors. Statistical analysis was performed by student's t test.

[3] = system: Human pancreatic cancer cell line Panc-1; test: Hollow fiber assay, Panc-1; format: in vivo, nude mice; details: up to 8 days
Protocol: The hollow fiber assay (HFA) was developed by the NCI as a high-throughput, preliminary in vivo screening assay for the evaluation of anti-cancer agents.
Human pancreatic cancer cell line Panc-1 were in vitro cultured inside hollow fibers for overnight, followed by in vivo implantation at s.c. sites of the nude mice. Mice were treated with vehicle control (0.5% CMC), positive control (100 mg/kg Gemcitabine) and 3 doses of cucurbitacin B (0.1 mg/kg, 0.5 mg/kg and 1.0 mg/kg) for up to 8 days. Then the fibers were excised and analyzed for cell viability by MTT assay. An additional group, the growth control group was also included in the assay. Mice in this group were sacrificed on the first day of treatment, and fibers were excised and analyzed for cell viability by MTT assay. The efficacies of cucurbitacin B against Panc-1 were expressed as the inhibited (or not) net growth percentage of the cancer cells when compared to the vehicle control group.

[4] = system: Human GBM cell lines U87, T98G, U118, U343, U373; test: MTT cell cytotoxicity assay, glioblastoma multiforme cell lines; format: cell-based; details: 48 hours, range over the cell lines
Protocol: Human GBM cell lines U87, T98G, U118, U343, U373 cell lines were maintained in Dulbecco's modified Eagle's medium (Gibco, BRL) with 10% fetal calf serum (Gemini Bio-Products, Calabasas, Calif., USA), 10 U/ml penicillin G and […] streptomycin. They were all incubated at 37° C. in 5% CO2 atmosphere.
The cytotoxic effect of CuB on these cancer cell lines were determined using MTT (3-[4,5-dimethylthiazol-2-yl]-2,5-diphenyl tetrazolium bromide) labeled cell cytotoxicity assay. A total of 1×10^4 cells were seeded into a 96-well plate for 24 hours prior to cucurbitacin B (CuB) treatment. They were then treated with different dosages of CuB for 48 hours. After the treatment, 20 μl of MTT (5 mg/ml) was added to each well and incubated for 4 hrs. Then the medium was discarded and 100 μl of dimethyl sulfoxide was added. The absorbance at 570 nm was then measured by a microplate reader and the 50% inhibition concentration (IC50) were obtained. Results for untreated control cells were set as 100%, with remaining data shown as a percentage of control. Data represented the mean±standard error of triplicate samples.

CC(=O)OC(C)(C)/C=C/C(=O)[C@](C)(O)C1[C@H](O)C[C@@]2(C)C3CC=C4C(C[C@H](O)C(=O)C4(C)C)[C@]3(C)C(=O)C[C@]12C (stereo partly drawn) [cucurbitacin B]
effect on cytoskeletal network (F-actin) (HL60 and U937 cells): rapid and improper polymerization of the F-actin network
Cell growth rate compared with the negative control group ([1]; 0.2 mg/kg p.o.): about 75%
cell growth in hollow fibers ([1]; 0.2 mg/kg, i.p., s.c. and p.o.): potently inhibited
Stat3 activation (Stat3; HepG2 cells and HT29 cells, 25 ug/ml, 30 minutes): inhibited significantly
Stat3 activation (Stat3; MCF-7 cells): no significant change
Jak and c-raf activation (Jak, Stat3 and c-raf; 4 hours): inhibited significantly
Stat3 activation (Jak, Stat3 and c-raf; 24 hours): inhibited significantly
weight of dissected tumors vs vehicle treated mice ([2]; i.p. 1 mg/kg three times a week, six weeks): weighed significantly less
growth of MDA-MB-231 tumors compared with control ([2]; intraperitoneal 1 mg/kg 3 times a week, 6 weeks): 50.1%
net-growth of Panc-1 compared to the vehicle control group ([3]; 0.1 mg/kg and 0.5 mg/kg): about 40%
net cell growth of Panc-1 in hollow fibers ([3]; 0.1 mg/kg, 0.5 mg/kg and 1.0 mg/kg): potently inhibited
GI50 [4]: 0.05 to 0.1 µM
